Experimental data published in patent US20240226120A1 (priority 2020, published 2024).
Several values for one entry are separate records, joined by “and”; a condition that tells them apart may be missing. Equal entries are not always repeated.

What was measured:
Type I interferons = experiment: Interferon types after CBD treatment, summary over transfections; format: cell-based, human; settings: summary statement, transfection not specified
[1] = tested on: HEK293 (human embryonic kidney) cells transfected with control plasmid pCMV-3Tag-3A; experiment: Apoptosis assay (pSIVA early, propidium iodide late), control plasmid; format: cell-based; settings: 24 hours, normalized to crystal violet
From the text: (§1) 2. […] These transfections are done in duplicate.

[2] = tested on: interferon and interferon-induced antiviral effector gene expression in cells expressing M-protein; experiment: qPCR of interferons and effector gene expression, M-protein; format: cell-based, human
[3] = tested on: HEK293 (human embryonic kidney) cells transfected with plasmid expressing M protein; experiment: Apoptosis assay (pSIVA early, propidium iodide late), M protein; format: cell-based
From the text: as §1

normal cells = experiment: Inhouse work on cell death, normal cells (unpublished data); format: cell-based
[4] = tested on: TNFα, IL-6, IL-4, IL-13, IL-10, and IL-5; settings: asthma induced animals treated with Cannabidiol vs asthma induced animals; cited from earlier work
HT22 hippocampal neurons = settings: 5 μM CBD, oxygen-glucose deprivation; cited from earlier work
CB2 receptor = CB2 receptor (Homo sapiens, UniProt P34972); settings: cited from earlier work
[5] = tested on: HEK293 (human embryonic kidney) cells transfected with plasmid expressing viral protein ORF8; experiment: Apoptosis assay (pSIVA early, propidium iodide late), ORF8; format: cell-based; settings: ORF8, 24 hours
From the text: as §1

[6] = tested on: HEK293 (human embryonic kidney) cells expressing the viral M protein; experiment: BrdU incorporation colorimetric ELISA, cells expressing viral M protein; format: cell-based; settings: 1 μM, 24 hours, not normalized to cell number (FIG. 5)
[7] = tested on: metabolically dysregulated cells; experiment: Inhouse work on cell death, metabolically dysregulated cells (unpublished data); format: cell-based
[8] = tested on: HEK293 (human embryonic kidney) cells expressing the viral Orf10 protein; format: cell-based
[9] = tested on: HEK293 (human embryonic kidney) cells expressing the viral Orf8 protein; format: cell-based

Chain of CB2 receptor (P34972 whole entry): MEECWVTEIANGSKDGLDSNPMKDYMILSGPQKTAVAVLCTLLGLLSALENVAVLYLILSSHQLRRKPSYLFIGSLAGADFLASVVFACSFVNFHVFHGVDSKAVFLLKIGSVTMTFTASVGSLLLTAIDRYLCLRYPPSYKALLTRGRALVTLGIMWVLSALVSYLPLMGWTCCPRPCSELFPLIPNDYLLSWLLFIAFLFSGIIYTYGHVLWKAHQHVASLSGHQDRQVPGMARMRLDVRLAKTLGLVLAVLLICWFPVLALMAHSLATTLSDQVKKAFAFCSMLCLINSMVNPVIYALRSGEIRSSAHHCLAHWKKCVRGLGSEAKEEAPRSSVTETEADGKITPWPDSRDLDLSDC

With `C=C(C)[C@@H]1CCC(C)=C[C@H]1c1c(O)cc(CCCCC)cc1O` [Cannabidiol, 2-[(1R,6R)-3-Methyl-6-(1-methylethenyl)-2-cyclohexen-1-yl]-5-pentyl-1,3-benzenediol] the “change in Type I interferons as a result of CBD treatment” value (Type I interferons) was “not much change”, the “early apoptosis (pSIVA)” value [1] was “do not show any significant increase” and the “late apoptosis (propidium iodide)” value [1] was “do not show any significant increase”. The “early apoptosis (pSIVA)” value ([1]; listed as CBD) was “did not alter”, the “late apoptosis (propidium iodide)” value ([1]; listed as CBD) was “did not alter” and the OAS1 gene expression ([2]; M protein, 1 μM CBD vs vehicle-treated cells, 24 hours (FIG. 18)) was “significantly greater expression”. The “INF-lambda 1 expression” value ([2]; M-protein, 1 μM CBD, 24 hours (FIG. 16A)) was “induced”, the “INF-lambda 2/3 expression” value ([2]; M-protein, 1 μM CBD, 24 hours (FIG. 16B)) was “induced” and the “IFIT1 augmentation compared with cells expressing control plasmid” value ([2]; M-protein, 1 μM CBD, 24 hours (FIG. 19)) was “lower”. For the same molecule, the Mx1 gene expression ([2]; M-protein, 1 μM CBD, 24 hours, vs Cannabidiol-treated cells expressing only control plasmid (FIG. 17)) was “significantly greater extent”, the “early apoptosis (pSIVA)” value ([3]; relative to M protein cells treated only with vehicle (FIG. 15A)) was “significantly elevated” and the “late apoptosis (propidium iodide)” value ([3]; relative to M protein cells treated only with vehicle (FIG. 15B)) was “significantly elevated”. The cell death (normal cells) was “no effect”, the “levels of all cytokines (TNFα, IL-6, IL-4, IL-13, IL-10, IL-5)” value [4] was “reduced significantly” and the “apoptosis and oxidative stress” value (HT22 hippocampal neurons) was “significantly attenuated”. The “binding to CB2 receptor” value (CB2 receptor) was “very weakly”, the “early apoptosis (pSIVA)” value ([5]; vs vehicle-treated ORF8 cells and vs Cannabidiol-treated control vector cells (FIG. 8A)) was “significant increases” and the “late apoptosis (propidium iodide)” value ([5]; vs vehicle-treated ORF8 cells and vs Cannabidiol-treated control vector cells (FIG. 8B)) was “significant increases”. The “mean BrdU incorporation lower than in cells expressing M protein but untreated with cannabinoids” value [6] was 37.28%, the cell death [7] was “decreases cell death” and the “mean BrdU incorporation lower than in cells expressing Orf10 but untreated with cannabinoids” value [8] was 30.44%. The “mean BrdU incorporation lower than in cells expressing Orf8 but untreated with cannabinoids” value [9] was 37.28% and 43.52%.
With `CCCc1cc(O)c2c(c1)OC(C)(C)[C@@H]1CC=C(C)C[C@@H]21` [delta 8-tetrahydrocannabivarin] the “BrdU incorporation relative to untreated cells” value [8] was “less reduction”.
